Experimental data: patent US20180318383A1, “PEPTIDE HAVING NEURONAL LOSS PREVENTION AND REGENERATION EFFECTS, AND COMPOSITION CONTAINING SAME” (GEMVAX & KAEL CO., LTD., priority 2015, published 2018)

Legend:
Tau = assay: NFT generation (Tau expression) in 3XTg-AD mice (western blotting, immunostaining); format: in vivo; conditions: hippocampus and whole brain; vs control and Donepezil
Experimental: (§1) To test the efficacy of PEP1 on AD, AD transgenic mice (3XTg-AD) were purchased from Jackson Laboratory. Genetic characteristics of the transgenic mice are as follows: B6; 129-Psen1tm1Mpm Tg(APPSwe, tauP301L)1Lfa/Mmjax. […] One week after mice were confirmed as pregnant, new mice were delivered and weaned for 3 weeks. Two weeks later, mature mice were obtained.
(§2) During the preliminary breeding and the entire period of the experiment, a temperature was maintained at 23±2° C. and a relative humidity was maintained at 60±10%, and then the mice were raised under a 12-hour dark/light cycle. Experimental animals were divided into five groups, and each group included 10 animals. The divided experimental groups are as follows. […]
(§3) The PEP1, physiological saline, donepezil and scramble peptide were subcutaneously injected at each concentration three times a week for two months from the age of 12 months, and then two months after the injection, cognitive/memory behavior tests (passive avoidance test and Y maze test) were performed to examine a degree of improvement in cognitive function and memory function. After the brain was extracted to separate the hippocampus, the amounts of amyloid beta in the hippocampus and the whole brain, and the amounts of an amyloid beta oligomer and NFT generated by tau hyperphosphorylation were determined by western blotting and immunostaining. […]

neuronal apoptosis = assay: Oxygen-glucose deprivation (OGD), in vitro model of ischemic stroke; format: cell-based
DCX = DCX expression in 3XTg-AD mice (western blotting, immunostaining); format: in vivo; conditions: hippocampus and whole brain; s.c. three times a week for two months; vs control and Donepezil, same amount
Experimental: as §1, §2, §3

[1] = tested on: AD transgenic mice (3XTg-AD); assay: Passive avoidance test; format: in vivo
Experimental: as §1, §2
The PEP1, physiological saline, donepezil and […], and then two months after the injection, cognitive/memory behavior tests (passive avoidance test and Y maze test) were performed to examine a degree of improvement in cognitive function and memory function. After the brain was extracted to separate the hippocampus, the amounts of amyloid beta in the hippocampus and the whole brain, and the amounts of an amyloid beta oligomer and NFT generated by tau hyperphosphorylation were determined by western blotting and immunostaining. […]

Which results are given for “EARPALLTSRLRFIPK (homo sapiens) [PEP1, hTERT-derived peptide consisting of 16 amino acids, telomerase location [611-626]]”?
expression level of Tau (Tau): decreased; neuronal apoptosis caused by oxygen-glucose deprivation (OGD) (neuronal apoptosis): inhibiting neuronal apoptosis; DCX (DCX): increased; avoidance ability (passive avoidance test) ([1]; 3XTg-AD mice, treated from age 12 months, tested two months after injection, vs control and Donepezil): excellent avoidance ability; time and frequency of staying in the bright room (passive avoidance test) ([1]; severe AD models, 20-month-old or older 3XTg-AD mice, PEP1 1 mg/kg s.c., vs physiological saline): increased
